From patent US20250255990A1, “FLUORESCENT NANODIAMOND COATED WITH POROUS POLYDOPAMINE, AND USE THEREOF” (KOREA RESEARCH INSTITUTE OF STANDARDS AND SCIENCE, priority 2022, published 2025)

Tested on: HeLa cells
Assay: Annexin V-FITC / PI flow cytometry (FACS)
Assay type: cell-based
Settings: 50 μg/mL, 16 hours
Experimental: In addition, analysis was performed using FACS (BD Accuri™, BD Biosciences) to evaluate the biocompatibility of FND@mPDA-PEG. Specifically, HeLa cells were incubated with 50 μg/mL of FND, FND@mPDA-PEG, or doxorubicin for the control experiment at 37° C. for 16 hours and washed with PBS. Cells (1×10^5 cells/sample) were suspended in 100 μL of 1× binding buffer and stained with 5 μL of Annexin V-FITC and 5 μL of PI. The cells were gently vortexed and incubated at room temperature for 15 minutes in the dark. 400 μL of 1× binding buffer was added to each tube and then analyzed by flow cytometry. 10,000 or more events were collected and the data were analyzed using FlowJo™ version 10.7 software.

**Q.** Which “apoptosis / cell survival” value does the source give for `COc1cccc2c1C(=O)c1c(O)c3c(c(O)c1C2=O)C[C@@](O)(C(=O)CO)C[C@@H]3O[C@H]1C[C@H](N)[C@H](O)[C@H](C)O1` [doxorubicin] here?
**A.** induced apoptosis of HeLa cells
